Key:
[1] = system: Human rhinovirus sp.; test: Inhibition of recombinant N-terminal His-tagged HRV 3C protease expressed in Escherichia coli at 100 uM preincubated for 15 mins followed by LEVLFQGPSK substrate addition after 45 mins by reverse-phase HPLC analysis relative to control
[2] = system: Human rhinovirus sp.; test: Inhibition of recombinant N-terminal His-tagged HRV 3C protease expressed in Escherichia coli at 10 uM preincubated for 15 mins followed by LEVLFQGPSK substrate addition after 45 mins by reverse-phase HPLC analysis relative to control
[3] = Inhibition of recombinant N-terminal His-tagged HRV 3C protease expressed in Escherichia coli preincubated for 15 mins followed by LEVLFQGPSK substrate addition after 45 mins by reverse-phase HPLC analysis; design: species or system Human rhinovirus sp.

SMILES	inhibition [1] [%]	inhibition [2] [%]	IC50 [3] [µM]
CC1(C)O[C@H](C(=O)Nc2nc3ccccc3s2)[C@@H](C(=O)N2CCN(c3ccccc3C#N)CC2)O1	84.2	48.1	> 10
Cc1cccc(CN2CCN(C(=O)[C@@H]3OC(C)(C)O[C@H]3C(=O)Nc3nc4ccccc4s3)CC2)c1	78.7	20.2	> 10
CC1(C)O[C@H](C(=O)Nc2nc3ccccc3s2)[C@@H](C(=O)N2CCN(c3ccccn3)CC2)O1	82.5	10.8	> 10
CC1(C)O[C@H](C(=O)Nc2nc3ccccc3s2)[C@@H](C(=O)N2CCN(c3ccccc3)CC2)O1	67.8	17.5	> 10
CC1(C)O[C@@H](C(=O)Nc2nc3ccccc3s2)[C@H](C(=O)N2CCN(c3ccccc3C#N)CC2)O1	100	86	2.5
CC1(C)O[C@H](C(=O)Nc2nc3ccccc3s2)[C@@H](C(=O)N2CCN(Cc3ccccc3)CC2)O1	56.4	20.8	> 10
CC1(C)O[C@@H](C(=O)Nc2nc3ccccc3s2)[C@H](C(=O)N2CCN(Cc3ccccc3)CC2)O1	85.5	18.8	> 10
COc1cccc(NCCNC(=O)[C@H]2OC(C)(C)O[C@@H]2C(=O)Nc2nc3ccccc3s2)c1	85.2	43.6	> 10
COc1cccc(NCCNC(=O)[C@@H]2OC(C)(C)O[C@H]2C(=O)Nc2ccc3ccccc3c2)c1	80.6	44	> 10
COc1cccc(NCCNC(=O)[C@@H]2OC(C)(C)O[C@H]2C(=O)Nc2nc3ccccc3s2)c1	99.9	62.2	8.28
Cc1cccc(CN2CCN(C(=O)[C@H]3OC(C)(C)O[C@@H]3C(=O)Nc3nc4ccccc4s3)CC2)c1	85.3	34.3	> 10
CC1(C)O[C@@H](C(=O)Nc2nc3ccccc3s2)[C@H](C(=O)N2CCN(c3ccccn3)CC2)O1	97.8	64.4	10.6
CC1(C)O[C@@H](C(=O)Nc2nc3ccccc3s2)[C@H](C(=O)N2CCN(c3ccccc3)CC2)O1	100	69	8.57
